In patent US20030045548A1, “Polymorphic forms of 6-[4-(1-cyclohexyl-1H-tetrazol-5-YL)butoxy]-3,4-dihydro-2(1H)-quinolinone” (priority 2001, published 2003):

Tests used:
[1] = aqueous solubility of cilostazol polymorphic forms; assay type: physicochemical
[2] = bioavailability of cilostazol Form A; assay type: in vivo; conditions: Form A as prepared by the procedures of the '479 patent
[3] = stability of the polymorphic form; assay type: physicochemical; conditions: statement in summary, no conditions given

O=C1CCc2cc(OCCCCc3nnnn3C3CCCCC3)ccc2N1 [Form A, 6-[4-(1-cyclohexyl-1H-tetrazol-5-yl)butoxy]-3,4-dihydro-2(1H)-quinolinone]
aqueous solubility ([1]; Form A as prepared by the procedures of the '479 patent): low aqueous solubility | bioavailability [2]: low bioavailability

O=C1CCc2cc(OCCCCc3nnnn3C3CCCCC3)ccc2N1 [Form B, 6-[4-(1-cyclohexyl-1H-tetrazol-5-yl)butoxy]-3,4-dihydro-2(1H)-quinolinone]
solubility relative to Form A ([1]; inferred from lower DSC melting point (FIG. 8), no solubility measurement): more soluble than Form A | stability of the form [3]: stable
